ChEMBL document CHEMBL4613276, “Discovery of New 1,1'-Biphenyl-4-sulfonamides as Selective Subnanomolar Human Carbonic Anhydrase II Inhibitors” (ACS Med Chem Lett, 2020)

What was measured:
Carbonic anhydrase 2 = Carbonic anhydrase 2 (Homo sapiens, UniProt P00918); assay: Inhibition of recombinant human carbonic anhydrase 2 preincubated with enzyme for 10 mins by phenol red dye based stopped flow CO2 hydration assay
Carbonic anhydrase 9 = Carbonic anhydrase 9 (Homo sapiens, UniProt Q16790)
Description: Inhibition of recombinant human carbonic anhydrase 9 preincubated with enzyme for 10 mins by phenol red dye based stopped flow CO2 hydration assay

Carbonic anhydrase 1 = Carbonic anhydrase 1 (Homo sapiens, UniProt P00915); assay: Inhibition of recombinant human carbonic anhydrase 1 preincubated with enzyme for 10 mins by phenol red dye based stopped flow CO2 hydration assay
Sequence of Carbonic anhydrase 1 (P00915 whole entry): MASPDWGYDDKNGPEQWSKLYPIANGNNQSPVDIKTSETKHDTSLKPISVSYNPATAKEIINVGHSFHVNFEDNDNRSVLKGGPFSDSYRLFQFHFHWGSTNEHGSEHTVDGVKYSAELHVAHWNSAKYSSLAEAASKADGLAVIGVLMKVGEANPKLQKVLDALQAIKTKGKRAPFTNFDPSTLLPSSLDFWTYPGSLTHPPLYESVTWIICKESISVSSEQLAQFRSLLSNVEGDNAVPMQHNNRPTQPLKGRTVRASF

Row | SMILES | Ki (Carbonic anhydrase 2) | Ki (Carbonic anhydrase 9) | Ki (Carbonic anhydrase 1)
1 | Nc1cccc(C(=O)c2ccc(-c3ccc(S(N)(=O)=O)cc3)cc2)c1 | 9.8 nM | 266 nM | 87.3 nM
2 | Nc1cccc(Cc2ccc(-c3ccc(S(N)(=O)=O)cc3)cc2)c1 | 0.92 nM | 556 nM | 5.9 nM
3 | Nc1ccccc1C(=O)c1ccc(-c2ccc(S(N)(=O)=O)cc2)cc1 | 31 nM | 289 nM | 218 nM
4 | NS(=O)(=O)c1ccc(-c2ccc(C(=O)c3cccc(C(=O)O)c3)cc2)cc1 | 0.94 nM | 491 nM | 7.3 nM
5 | Nc1ccccc1C(O)c1ccc(-c2ccc(S(N)(=O)=O)cc2)cc1 (stereo not drawn) | 0.97 nM | 92 nM | 8.4 nM

Compounds with a lower Ki (Carbonic anhydrase 2), results first:

Row | Ki (Carbonic anhydrase 2) | Ki (Carbonic anhydrase 9) | Ki (Carbonic anhydrase 1) | SMILES
6 | 0.78 nM | 464 nM | 33.1 nM | Nc1cccc(C(O)c2ccc(-c3ccc(S(N)(=O)=O)cc3)cc2)c1 (stereo not drawn)
7 | 0.7 nM | 249 nM | 80.1 nM | NS(=O)(=O)c1ccc(-c2ccc(C3OC(=O)c4ccccc43)cc2)cc1 (stereo not drawn)
8 | 0.83 nM | 469 nM | 39.4 nM | NS(=O)(=O)c1ccc(-c2ccc(C(=O)c3ccccc3C(=O)O)cc2)cc1
9 | 0.69 nM | 437 nM | 6.8 nM | NS(=O)(=O)c1ccc(-c2ccc(Cc3ccccc3C(=O)O)cc2)cc1
10 | 0.83 nM | 88.4 nM | 6.9 nM | NS(=O)(=O)c1ccc(-c2ccc(C(O)c3cccc(C(=O)O)c3)cc2)cc1 (stereo not drawn)
11 | 0.57 nM | 323 nM | 21.3 nM | NS(=O)(=O)c1ccc(-c2ccc(Cc3cccc(C(=O)O)c3)cc2)cc1
